# According to ChEMBL document CHEMBL1201862, “PubChem BioAssay data set” (2004):
# The source made the active and inactive calls.
# Assays:
# [1] = biological target: Induced myeloid leukemia cell differentiation protein Mcl-1 (Homo sapiens, UniProt Q07820); assay: MCL1-BIM BH3 interaction inhibitors, dose response, biochemical, fluorescence polarization, BIM-BH3 peptide, 1536-well (AID 2217)
# [2] = biological target: Bcl-2-like protein 1 (Homo sapiens, UniProt Q07817); assay: BCL-XL inhibitors, dose response, selectivity assay for MCL1 inhibitor project, biochemical, fluorescence polarization, 1536-well (AID 2218)
# [3] = biological target: T1, Alkaline phosphatase, tissue-nonspecific isozyme (Homo sapiens, UniProt P05186)
# T1 sequence (P05186 whole entry): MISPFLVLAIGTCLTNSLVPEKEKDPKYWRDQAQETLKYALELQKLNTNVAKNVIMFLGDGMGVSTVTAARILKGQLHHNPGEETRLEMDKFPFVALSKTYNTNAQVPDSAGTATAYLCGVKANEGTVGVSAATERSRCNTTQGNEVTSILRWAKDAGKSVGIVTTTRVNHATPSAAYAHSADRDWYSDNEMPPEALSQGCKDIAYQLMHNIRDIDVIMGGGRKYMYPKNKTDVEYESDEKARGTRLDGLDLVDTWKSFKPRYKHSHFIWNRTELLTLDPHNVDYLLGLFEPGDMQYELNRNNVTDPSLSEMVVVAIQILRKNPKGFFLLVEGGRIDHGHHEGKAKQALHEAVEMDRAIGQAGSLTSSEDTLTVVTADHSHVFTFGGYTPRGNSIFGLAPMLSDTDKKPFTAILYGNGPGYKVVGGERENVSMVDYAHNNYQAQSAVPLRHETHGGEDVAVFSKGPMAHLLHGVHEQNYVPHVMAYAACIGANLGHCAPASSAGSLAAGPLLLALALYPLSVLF
# [4] = inhibitors of intracellular T. cruzi replication, confirmation, NIH3T3 host cells, beta-gal luminescence (AID 2044); format: functional, cell-based;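 also: intracellular parasites grown in NIH/3T3 mouse fibroblasts as host cells; luminescent beta-galactosidase reporter signal from transgenic T. cruzi replicating inside host cells; inhibitors lower the luminescence signal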
# [5] = cytotoxicity toward NIH3T3 fibroblasts, dose response, counter-screen, cell-based, ATP luminescence, mouse fibroblasts (AID 2010); format: functional;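 also: cells exposed to compound for about 90 hours before reading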
# [6] = biological target: Intestinal-type alkaline phosphatase (Homo sapiens, UniProt P09923); assay: activation of human intestinal alkaline phosphatase – biochemical, dose response (AID 488873); format: functional
# [7] = biological target: Intestinal-type alkaline phosphatase (Mus musculus, UniProt P24822); assay: PubChem AID 488785; format: functional
# [8] = biological target: T1, Alkaline phosphatase, tissue-nonspecific isozyme; assay: TNAP enzyme inhibition by screening hits, dose response, selectivity assay for mouse IAP inhibitor project, biochemical, human TNAP, uHTS hits (AID 488906); format: functional
# [9] = Counterscreen for IDE inhibitors: Luminescence-based cell-based high throughput dose response assay to identify compounds that are cytotoxic to HEK cells. [Related pubchem assays: 434962 (Primary screen (IDE inhibitors in singlicate)), 449730 (Counterscreen (Cytotoxicity in triplicate)), 435028 (Confirmation (IDE inhibitors in triplicate)) …; format: functional; settings: HEK293
# [10] = biological target: T2, Insulin-degrading enzyme (Homo sapiens, UniProt P14735); assay: Dose Response: Fluorescence polarization-based cell-based high throughput dose response assay for inhibitors of insulin-degrading enzyme (IDE). [Related pubchem assays: 434962 (Primary screen (IDE inhibitors in singlicate)), 449730 (Counterscreen (Cytotoxicity in triplicate)), 435028 (Confirmation (IDE inhibitors in triplicate)), 434984 (Summary …; format: functional
# T2 sequence (P14735 whole entry): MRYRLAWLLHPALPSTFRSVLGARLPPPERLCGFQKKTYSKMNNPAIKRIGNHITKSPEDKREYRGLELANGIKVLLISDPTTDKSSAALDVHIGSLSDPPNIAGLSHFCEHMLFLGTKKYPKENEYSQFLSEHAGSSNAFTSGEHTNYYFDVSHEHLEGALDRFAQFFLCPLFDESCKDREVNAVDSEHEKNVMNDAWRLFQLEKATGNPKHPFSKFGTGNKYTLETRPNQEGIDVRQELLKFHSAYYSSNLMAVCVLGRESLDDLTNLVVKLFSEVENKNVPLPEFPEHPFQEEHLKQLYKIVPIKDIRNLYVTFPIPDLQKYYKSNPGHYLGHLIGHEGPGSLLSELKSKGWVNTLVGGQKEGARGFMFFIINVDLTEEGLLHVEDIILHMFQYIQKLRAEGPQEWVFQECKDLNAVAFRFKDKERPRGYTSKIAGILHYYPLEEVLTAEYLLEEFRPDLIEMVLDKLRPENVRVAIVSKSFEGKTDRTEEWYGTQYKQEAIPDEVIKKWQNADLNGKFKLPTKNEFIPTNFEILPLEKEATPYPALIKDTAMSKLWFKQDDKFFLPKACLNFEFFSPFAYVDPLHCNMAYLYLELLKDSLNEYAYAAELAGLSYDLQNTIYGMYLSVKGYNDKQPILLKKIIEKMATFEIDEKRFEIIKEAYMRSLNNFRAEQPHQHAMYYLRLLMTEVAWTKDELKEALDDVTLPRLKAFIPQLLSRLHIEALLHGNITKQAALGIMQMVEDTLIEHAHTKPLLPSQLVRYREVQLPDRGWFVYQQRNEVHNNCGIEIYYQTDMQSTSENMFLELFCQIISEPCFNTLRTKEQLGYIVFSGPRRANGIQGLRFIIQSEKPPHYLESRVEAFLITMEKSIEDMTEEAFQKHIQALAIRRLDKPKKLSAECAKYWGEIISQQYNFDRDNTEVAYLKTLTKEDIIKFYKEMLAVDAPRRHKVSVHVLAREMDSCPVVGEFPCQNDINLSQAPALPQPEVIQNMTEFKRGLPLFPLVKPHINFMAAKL
# [11] = biological target: T3, DNA repair protein RAD52 homolog (Homo sapiens, UniProt P43351); format: functional, biochemical
# T3 sequence (P43351 whole entry): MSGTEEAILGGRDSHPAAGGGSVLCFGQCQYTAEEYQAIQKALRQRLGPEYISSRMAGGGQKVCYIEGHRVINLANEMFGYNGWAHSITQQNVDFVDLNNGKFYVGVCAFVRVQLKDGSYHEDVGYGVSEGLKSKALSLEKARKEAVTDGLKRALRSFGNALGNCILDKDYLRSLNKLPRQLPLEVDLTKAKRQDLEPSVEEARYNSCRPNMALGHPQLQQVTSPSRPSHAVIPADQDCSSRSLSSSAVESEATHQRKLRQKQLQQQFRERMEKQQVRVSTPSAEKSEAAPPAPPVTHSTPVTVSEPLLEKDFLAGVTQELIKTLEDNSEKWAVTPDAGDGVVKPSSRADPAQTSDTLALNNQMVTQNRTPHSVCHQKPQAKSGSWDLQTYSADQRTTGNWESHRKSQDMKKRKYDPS
# [12] = enhancers of respiration in Yfh1-depleted yeast, dose response, Friedreich's ataxia, plus single-dose screen (AID 1465); format: functional;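 also: yeast depleted of Yfh1p frataxin homolog grown on glycerol needing respiration; WST-1 tetrazolium dye reduction as measure of cellular dehydrogenase metabolic activity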
# [13] = biological target: T4, NADPH oxidase 1 (Homo sapiens, UniProt Q9Y5S8); assay: Late-stage luminescence-based cell-based dose response assay to identify inhibitors of NADPH oxidase 1 (NOX1): Synthesized analogs.; format: functional
# T4 sequence (Q9Y5S8 whole entry): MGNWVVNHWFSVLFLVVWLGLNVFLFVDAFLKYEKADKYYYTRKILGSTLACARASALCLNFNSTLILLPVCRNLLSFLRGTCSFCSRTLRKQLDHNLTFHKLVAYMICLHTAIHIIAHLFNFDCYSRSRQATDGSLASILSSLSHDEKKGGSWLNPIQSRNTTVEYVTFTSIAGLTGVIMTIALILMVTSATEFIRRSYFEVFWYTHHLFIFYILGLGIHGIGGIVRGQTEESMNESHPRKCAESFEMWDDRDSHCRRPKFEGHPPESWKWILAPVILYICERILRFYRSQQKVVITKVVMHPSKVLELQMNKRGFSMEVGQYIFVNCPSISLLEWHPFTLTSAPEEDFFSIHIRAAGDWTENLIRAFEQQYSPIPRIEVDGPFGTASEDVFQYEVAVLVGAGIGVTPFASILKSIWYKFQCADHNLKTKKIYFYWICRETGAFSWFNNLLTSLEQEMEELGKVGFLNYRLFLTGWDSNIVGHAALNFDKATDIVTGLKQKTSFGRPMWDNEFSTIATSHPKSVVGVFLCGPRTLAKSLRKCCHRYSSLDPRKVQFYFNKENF
# [14] = biological target: T4, NADPH oxidase 1; assay: Luminescence-based cell-based dose response assay to identify inhibitors of NADPH oxidase 1 (NOX1).; format: functional
# [15] = M. tuberculosis H37Rv growth inhibitors, H37Rv strain (AID 1626); format: functional
# Sequence of Intestinal-type alkaline phosphatase (Mus musculus, UniProt P24822) (P24822 whole entry): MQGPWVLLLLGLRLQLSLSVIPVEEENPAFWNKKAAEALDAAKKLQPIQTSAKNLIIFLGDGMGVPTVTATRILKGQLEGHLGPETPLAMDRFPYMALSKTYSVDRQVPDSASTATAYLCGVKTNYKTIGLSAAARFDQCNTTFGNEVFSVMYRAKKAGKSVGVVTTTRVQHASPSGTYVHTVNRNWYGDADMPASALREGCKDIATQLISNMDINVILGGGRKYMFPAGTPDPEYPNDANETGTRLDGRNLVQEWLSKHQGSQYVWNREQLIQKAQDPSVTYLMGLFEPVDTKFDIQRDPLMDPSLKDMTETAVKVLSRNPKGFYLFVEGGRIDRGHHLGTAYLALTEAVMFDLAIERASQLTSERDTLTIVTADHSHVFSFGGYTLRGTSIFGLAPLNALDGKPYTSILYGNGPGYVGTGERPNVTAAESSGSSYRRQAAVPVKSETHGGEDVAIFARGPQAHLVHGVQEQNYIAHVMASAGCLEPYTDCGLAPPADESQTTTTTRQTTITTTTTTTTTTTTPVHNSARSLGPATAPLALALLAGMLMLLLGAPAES
# Sequence of Intestinal-type alkaline phosphatase (Homo sapiens, UniProt P09923) (P09923 whole entry): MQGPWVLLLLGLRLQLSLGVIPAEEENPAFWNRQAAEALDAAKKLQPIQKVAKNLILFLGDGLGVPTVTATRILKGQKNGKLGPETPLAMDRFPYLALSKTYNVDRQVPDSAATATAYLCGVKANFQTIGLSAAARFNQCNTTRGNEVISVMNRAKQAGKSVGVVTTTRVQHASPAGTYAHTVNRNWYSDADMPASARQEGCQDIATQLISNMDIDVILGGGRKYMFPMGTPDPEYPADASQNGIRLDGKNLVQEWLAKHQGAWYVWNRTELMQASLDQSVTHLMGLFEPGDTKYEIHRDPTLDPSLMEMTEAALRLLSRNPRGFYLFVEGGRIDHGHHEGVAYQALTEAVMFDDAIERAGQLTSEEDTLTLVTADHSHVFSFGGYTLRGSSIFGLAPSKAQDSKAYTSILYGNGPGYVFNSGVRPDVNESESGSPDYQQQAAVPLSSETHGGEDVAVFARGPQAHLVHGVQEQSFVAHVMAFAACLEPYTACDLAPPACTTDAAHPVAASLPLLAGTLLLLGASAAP
# Sequence of Bcl-2-like protein 1 (Q07817 whole entry): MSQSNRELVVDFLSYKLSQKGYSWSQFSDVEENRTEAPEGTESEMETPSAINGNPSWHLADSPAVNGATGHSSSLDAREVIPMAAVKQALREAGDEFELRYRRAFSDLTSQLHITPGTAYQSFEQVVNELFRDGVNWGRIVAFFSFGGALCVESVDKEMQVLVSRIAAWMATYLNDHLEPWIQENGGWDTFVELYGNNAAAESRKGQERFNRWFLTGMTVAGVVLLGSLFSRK
# Sequence of Induced myeloid leukemia cell differentiation protein Mcl-1 (Q07820 whole entry): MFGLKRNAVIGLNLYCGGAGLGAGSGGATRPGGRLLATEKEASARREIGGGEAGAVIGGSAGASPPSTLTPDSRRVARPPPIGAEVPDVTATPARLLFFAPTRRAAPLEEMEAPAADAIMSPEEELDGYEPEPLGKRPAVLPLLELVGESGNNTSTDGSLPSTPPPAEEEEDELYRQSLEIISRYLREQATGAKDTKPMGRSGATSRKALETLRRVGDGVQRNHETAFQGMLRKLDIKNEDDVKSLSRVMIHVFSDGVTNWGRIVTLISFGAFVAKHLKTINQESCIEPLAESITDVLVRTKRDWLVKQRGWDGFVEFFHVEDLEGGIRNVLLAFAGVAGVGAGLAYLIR
smiles,measurement,setting,value
Cc1ccc(-c2csc3ncn(CC#N)c(=O)c23)cc1C,IC50,[1],> 109 µM (not active)
same,IC50,[2],> 109 µM (not active)
CC(C)c1ccc(NC(=O)NC2CCN(CC(=O)Nc3cccc4ccccc34)CC2)cc1,EC50,[3],> 100 µM (not active)
same,EC50,[4],1.88 µM (active)
same,EC50,[5],> 60 µM (inconclusive)
same,EC50,[6],> 100 µM (inactive)
same,IC50,[7],10.8 µM (active)
same,IC50,[8],59.3 µM (active)
CCOC(=O)c1c(C)n(Cc2ccccc2)c2ccc(OCC(O)CNC(C)(C)C)cc12 (stereo not given),IC50,[9],14.5 µM (not active)
same,IC50,[10],> 55.9 µM (not active)
same,AC50,[11],22 µM (active)
CCN(CC)c1ccc2cc(C(N)=O)c(=N)oc2c1,EC50,[12],> 100 µM (active)
COc1ccc2c(c1)S(=O)(=O)c1ccccc1N2,IC50,[13],> 50 µM (not active)
same,IC50,[14],> 20 µM (not active)
CCOC(=O)c1ccc(NCc2ccc(N(C)C)cc2)cc1,IC50,[15],> 100 µM (active)
